Laboratory results: the kinase profiling compilation of Christmann-Franck et al. (2016)
Where “and” joins values, the source holds several entries; their conditions need not be identical. Equal values may be shown once.

Experiments:
Assay in all cases: radiometric filter-binding kinase assay, Kinase HotSpot
Details in all cases: compound 0.5 µM; ATP 10 µM
[1] = target: TBK1 (human) (UniProt Q9UHD2)
[2] = target: DMPK (human) (UniProt Q09013)
[3] = target: NEK6 (human) (UniProt Q9HC98)
[4] = target: MAP3K11 (human) (UniProt Q16584)
Sequence of MAP3K11 (human) (Q16584 whole entry, looked up): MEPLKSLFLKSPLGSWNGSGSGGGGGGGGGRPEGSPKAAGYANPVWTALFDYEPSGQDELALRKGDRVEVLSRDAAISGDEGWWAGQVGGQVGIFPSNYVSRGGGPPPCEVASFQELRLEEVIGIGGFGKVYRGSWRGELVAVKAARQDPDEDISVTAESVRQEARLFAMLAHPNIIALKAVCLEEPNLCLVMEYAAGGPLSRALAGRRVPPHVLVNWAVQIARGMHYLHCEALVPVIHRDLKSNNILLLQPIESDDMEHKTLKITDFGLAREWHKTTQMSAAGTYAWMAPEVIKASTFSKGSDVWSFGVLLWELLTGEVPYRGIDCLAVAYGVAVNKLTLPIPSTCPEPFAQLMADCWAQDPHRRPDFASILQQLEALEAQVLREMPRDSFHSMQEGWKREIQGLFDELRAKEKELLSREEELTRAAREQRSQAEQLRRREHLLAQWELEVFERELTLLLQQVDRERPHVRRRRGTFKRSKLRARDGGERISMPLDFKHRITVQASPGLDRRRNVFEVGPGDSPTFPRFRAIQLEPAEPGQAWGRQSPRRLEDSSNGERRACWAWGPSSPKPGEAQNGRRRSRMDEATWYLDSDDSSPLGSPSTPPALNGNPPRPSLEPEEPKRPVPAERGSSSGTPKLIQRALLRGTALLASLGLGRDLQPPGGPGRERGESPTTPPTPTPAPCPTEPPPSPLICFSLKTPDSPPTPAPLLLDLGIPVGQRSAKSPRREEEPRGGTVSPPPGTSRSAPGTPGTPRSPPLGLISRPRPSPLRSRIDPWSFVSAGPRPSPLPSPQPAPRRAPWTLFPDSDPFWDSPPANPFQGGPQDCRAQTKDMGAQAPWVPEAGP

[5] = target: PAK4 (human) (UniProt O96013)
[6] = target: PKN1 (human) (UniProt Q16512)
[7] = target: NTRK2 (human) (UniProt Q16620)
[8] = target: CAMK2G (human) (UniProt Q13555)
[9] = target: CSNK1G2 (human) (UniProt P78368)
[10] = target: STK39 (human) (UniProt Q9UEW8)
[11] = target: FGFR1 (human) (UniProt P11362)
[12] = target: CDK5 CDK5R1 p25 (human) (UniProt Q00535+Q15078)
[13] = target: LIMK1 (human) (UniProt P53667)
[14] = target: ERBB4 (human) (UniProt Q15303)
[15] = target: CDK5 CDK5R1 p35 (human) (UniProt Q00535+Q15078)
[16] = target: SGK3 (human) (UniProt Q96BR1)
Sequence of SGK3 (human) (Q96BR1 whole entry, looked up): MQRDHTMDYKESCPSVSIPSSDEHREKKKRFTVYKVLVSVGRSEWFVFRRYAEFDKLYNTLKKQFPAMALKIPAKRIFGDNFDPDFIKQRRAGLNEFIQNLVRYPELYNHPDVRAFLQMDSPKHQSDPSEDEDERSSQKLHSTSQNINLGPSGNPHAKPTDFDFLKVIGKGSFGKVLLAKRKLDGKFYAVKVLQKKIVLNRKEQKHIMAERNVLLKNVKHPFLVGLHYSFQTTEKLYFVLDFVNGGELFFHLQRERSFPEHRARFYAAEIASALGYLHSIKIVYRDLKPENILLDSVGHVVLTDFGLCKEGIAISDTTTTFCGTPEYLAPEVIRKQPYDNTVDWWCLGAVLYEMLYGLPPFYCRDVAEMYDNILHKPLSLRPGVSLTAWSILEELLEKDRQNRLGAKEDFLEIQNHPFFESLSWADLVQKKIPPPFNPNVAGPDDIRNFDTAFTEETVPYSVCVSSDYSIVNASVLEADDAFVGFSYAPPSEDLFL

[17] = target: FYN (human) (UniProt P06241)
[18] = target: NTRK3 (human) (UniProt Q16288)
[19] = target: CAMK1D (human) (UniProt Q8IU85)
[20] = target: KIT (human) (UniProt P10721)
[21] = target: JAK3 JH1 JH2 (human) (UniProt P52333)
Sequence of JAK3 JH1 JH2 (human) (P52333 whole entry, looked up): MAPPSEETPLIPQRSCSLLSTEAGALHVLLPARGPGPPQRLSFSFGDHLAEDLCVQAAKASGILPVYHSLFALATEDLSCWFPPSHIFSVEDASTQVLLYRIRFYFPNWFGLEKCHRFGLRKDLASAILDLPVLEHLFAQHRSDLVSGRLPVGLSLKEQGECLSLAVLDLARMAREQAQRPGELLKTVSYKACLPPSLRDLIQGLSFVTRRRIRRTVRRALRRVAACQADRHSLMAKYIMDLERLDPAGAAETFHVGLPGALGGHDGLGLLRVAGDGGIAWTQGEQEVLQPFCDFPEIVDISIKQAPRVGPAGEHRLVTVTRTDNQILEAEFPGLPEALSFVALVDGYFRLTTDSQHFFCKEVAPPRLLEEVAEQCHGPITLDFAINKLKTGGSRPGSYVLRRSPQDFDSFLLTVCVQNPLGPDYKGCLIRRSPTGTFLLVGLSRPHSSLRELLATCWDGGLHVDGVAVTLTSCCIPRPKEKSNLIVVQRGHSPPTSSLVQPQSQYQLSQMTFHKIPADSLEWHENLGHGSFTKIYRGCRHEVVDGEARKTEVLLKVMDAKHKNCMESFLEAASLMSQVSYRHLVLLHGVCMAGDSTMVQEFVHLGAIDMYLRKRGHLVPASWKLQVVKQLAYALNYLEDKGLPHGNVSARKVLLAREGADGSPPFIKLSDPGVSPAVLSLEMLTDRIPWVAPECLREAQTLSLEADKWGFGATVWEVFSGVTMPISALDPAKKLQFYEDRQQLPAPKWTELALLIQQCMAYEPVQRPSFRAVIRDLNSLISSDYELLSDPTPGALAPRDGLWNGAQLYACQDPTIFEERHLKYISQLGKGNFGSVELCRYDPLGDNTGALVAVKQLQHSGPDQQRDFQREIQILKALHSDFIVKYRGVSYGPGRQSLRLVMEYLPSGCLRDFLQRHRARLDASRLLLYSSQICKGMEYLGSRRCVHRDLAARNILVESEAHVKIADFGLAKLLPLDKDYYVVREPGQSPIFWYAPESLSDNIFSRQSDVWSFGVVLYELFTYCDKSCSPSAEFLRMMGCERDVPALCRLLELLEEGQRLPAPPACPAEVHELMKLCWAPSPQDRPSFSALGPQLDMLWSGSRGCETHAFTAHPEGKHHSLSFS

[22] = target: PRKCA (human) (UniProt P17252)
[23] = target: PRKCZ (human) (UniProt Q05513)
Sequence of PRKCZ (human) (Q05513 whole entry, looked up): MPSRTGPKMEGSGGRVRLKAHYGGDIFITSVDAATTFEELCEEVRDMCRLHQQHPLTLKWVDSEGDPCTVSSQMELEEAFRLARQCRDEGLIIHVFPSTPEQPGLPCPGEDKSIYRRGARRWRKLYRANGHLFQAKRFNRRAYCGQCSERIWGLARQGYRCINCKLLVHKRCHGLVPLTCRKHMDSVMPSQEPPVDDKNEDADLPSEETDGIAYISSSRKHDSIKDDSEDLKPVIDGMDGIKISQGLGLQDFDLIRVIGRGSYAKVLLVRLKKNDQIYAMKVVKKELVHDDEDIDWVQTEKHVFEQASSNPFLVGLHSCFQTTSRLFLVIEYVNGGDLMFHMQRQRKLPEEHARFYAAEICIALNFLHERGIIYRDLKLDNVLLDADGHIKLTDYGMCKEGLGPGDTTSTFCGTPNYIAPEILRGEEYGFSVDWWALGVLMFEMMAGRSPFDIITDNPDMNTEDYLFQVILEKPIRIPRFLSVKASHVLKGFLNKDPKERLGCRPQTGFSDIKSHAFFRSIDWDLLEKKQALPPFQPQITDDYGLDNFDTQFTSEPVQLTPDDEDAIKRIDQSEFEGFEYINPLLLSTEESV

[24] = target: PAK7 (human) (UniProt Q9P286)
[25] = target: PIM3 (human) (UniProt Q86V86)
[26] = target: PKN2 (human) (UniProt Q16513)
[27] = target: MARK2 (human) (UniProt Q7KZI7)
[28] = target: TSSK1B (human) (UniProt Q9BXA7)
[29] = target: IKBKE (human) (UniProt Q14164)
[30] = target: DAPK3 (human) (UniProt O43293)
[31] = target: CSNK1D (human) (UniProt P48730)
[32] = target: PAK3 (human) (UniProt O75914)
[33] = target: DAPK2 (human) (UniProt Q9UIK4)
[34] = target: LYN (human) (UniProt P07948)
[35] = target: ITK (human) (UniProt Q08881)
[36] = target: MAPK3 (human) (UniProt P27361)
[37] = target: CDK6 CCND1 (human) (UniProt Q00534+P24385)
[38] = target: PDPK1 (human) (UniProt O15530)
[39] = target: NEK9 (human) (UniProt Q8TD19)
Sequence of NEK9 (human) (Q8TD19 whole entry, looked up): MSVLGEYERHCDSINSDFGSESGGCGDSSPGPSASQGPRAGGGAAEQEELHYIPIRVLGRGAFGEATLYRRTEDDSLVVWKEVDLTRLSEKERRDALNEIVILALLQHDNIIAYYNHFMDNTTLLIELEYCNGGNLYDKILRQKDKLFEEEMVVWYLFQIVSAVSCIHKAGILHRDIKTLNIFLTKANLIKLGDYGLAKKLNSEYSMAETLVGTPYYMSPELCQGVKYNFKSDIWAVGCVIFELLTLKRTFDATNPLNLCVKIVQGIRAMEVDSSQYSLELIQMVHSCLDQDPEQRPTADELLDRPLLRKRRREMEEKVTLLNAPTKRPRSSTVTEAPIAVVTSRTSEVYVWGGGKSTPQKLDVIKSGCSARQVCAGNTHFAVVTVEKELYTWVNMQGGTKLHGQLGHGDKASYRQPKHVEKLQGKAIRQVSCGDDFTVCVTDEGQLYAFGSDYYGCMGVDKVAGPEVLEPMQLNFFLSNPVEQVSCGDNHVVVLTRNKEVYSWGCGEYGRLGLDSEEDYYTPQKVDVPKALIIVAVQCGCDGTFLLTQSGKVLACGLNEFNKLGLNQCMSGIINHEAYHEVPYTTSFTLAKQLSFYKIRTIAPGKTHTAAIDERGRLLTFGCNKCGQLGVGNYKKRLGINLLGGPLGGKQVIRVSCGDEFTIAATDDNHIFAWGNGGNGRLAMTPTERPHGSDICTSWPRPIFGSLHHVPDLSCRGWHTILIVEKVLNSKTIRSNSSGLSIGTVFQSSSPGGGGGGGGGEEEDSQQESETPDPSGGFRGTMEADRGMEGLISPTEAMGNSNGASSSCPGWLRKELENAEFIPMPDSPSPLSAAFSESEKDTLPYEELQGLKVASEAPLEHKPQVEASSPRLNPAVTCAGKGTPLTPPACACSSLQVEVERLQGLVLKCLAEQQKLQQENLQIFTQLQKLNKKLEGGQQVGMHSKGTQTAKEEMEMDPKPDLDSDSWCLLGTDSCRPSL

[40] = target: EGFR (human) (UniProt P00533)
[41] = target: MAPK8 (human) (UniProt P45983)
[42] = target: ABL1 (human) (UniProt P00519)

Sequence of DMPK (human) (Q09013 whole entry, looked up): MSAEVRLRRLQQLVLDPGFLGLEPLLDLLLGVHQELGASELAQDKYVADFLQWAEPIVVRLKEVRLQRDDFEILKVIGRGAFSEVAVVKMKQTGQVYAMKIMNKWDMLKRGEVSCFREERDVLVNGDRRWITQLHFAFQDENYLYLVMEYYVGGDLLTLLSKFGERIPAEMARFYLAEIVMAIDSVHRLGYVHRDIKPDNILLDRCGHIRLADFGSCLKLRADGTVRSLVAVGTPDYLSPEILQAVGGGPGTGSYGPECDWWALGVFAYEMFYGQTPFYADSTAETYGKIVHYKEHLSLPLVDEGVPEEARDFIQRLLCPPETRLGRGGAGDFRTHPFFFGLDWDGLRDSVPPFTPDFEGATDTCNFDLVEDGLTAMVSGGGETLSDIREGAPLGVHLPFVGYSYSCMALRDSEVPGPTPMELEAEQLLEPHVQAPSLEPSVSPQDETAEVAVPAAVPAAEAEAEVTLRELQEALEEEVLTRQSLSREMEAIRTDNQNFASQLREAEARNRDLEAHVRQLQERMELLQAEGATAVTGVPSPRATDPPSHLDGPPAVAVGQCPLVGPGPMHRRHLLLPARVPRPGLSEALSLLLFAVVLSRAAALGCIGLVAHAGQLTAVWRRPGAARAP

COc1cc2ncnc(Nc3ccc(Oc4ccccc4)cc3)c2cc1OC gave a residual activity [1] of 93.7%, a residual activity [2] of 106% and a residual activity [3] of 93%. For the same compound, the residual activity [4] was 68.5%, the residual activity [5] was 98.3% and the residual activity [6] was 97.3%. For the same compound, the residual activity [7] was 103%, the residual activity [8] was 94% and the residual activity [9] was 99.9%. The residual activity [10] was 102%, the residual activity [11] was 85% and the residual activity [12] was 88.8%. The residual activity [13] was 89%, the residual activity [14] was 8.79% and the residual activity [15] was 115%. The residual activity [16] was 101%, the residual activity [17] was 26.9% and the residual activity [18] was 99.7%. For the same compound, the residual activity [19] was 99.7%, the residual activity [20] was 75.6% and the residual activity [21] was 93.1%. It also gave a residual activity [22] of 101%, a residual activity [23] of 100% and a residual activity [24] of 103%. It also gave a residual activity [25] of 96.9%, a residual activity [26] of 93.6% and a residual activity [27] of 95.3%. The residual activity [28] was 104%, the residual activity [29] was 101% and the residual activity [30] was 96.9%. The residual activity [31] was 106%, the residual activity [32] was 98.1% and the residual activity [33] was 102%. For the same compound, the residual activity [34] was 21.6% and 42.6%, the residual activity [35] was 93.6% and the residual activity [36] was 105%. For the same compound, the residual activity [37] was 95.1%, the residual activity [38] was 111% and the residual activity [39] was 97.8%. For the same compound, the residual activity [40] was 31.6%, the residual activity [41] was 91.8% and the residual activity [42] was 81.8%.

O=C1C(Cl)=C(N2C(=O)CCC2=O)C(=O)c2ccccc21 showed a residual activity [1] of 97.9%, a residual activity [2] of 98.5% and a residual activity [3] of 104%. It also gave a residual activity [4] of 102%, a residual activity [5] of 114% and a residual activity [6] of 108%. For the same compound, the residual activity [7] was 104%, the residual activity [8] was 104% and the residual activity [9] was 99.3%. The residual activity [10] was 97.3%, the residual activity [11] was 99.5% and the residual activity [12] was 87.3%. For the same compound, the residual activity [13] was 92.5%, the residual activity [14] was 110% and the residual activity [15] was 93.7%. For the same compound, the residual activity [16] was 103%, the residual activity [17] was 111% and the residual activity [18] was 98.6%. For the same compound, the residual activity [19] was 102%, the residual activity [20] was 84.7% and the residual activity [21] was 101%. For the same compound, the residual activity [22] was 99.1%, the residual activity [23] was 114% and the residual activity [24] was 108%. It also gave a residual activity [25] of 101%, a residual activity [26] of 108% and a residual activity [27] of 79.4%. It also gave a residual activity [28] of 104%, a residual activity [29] of 99.6% and a residual activity [30] of 114%. For the same compound, the residual activity [31] was 99.4%, the residual activity [32] was 104% and the residual activity [33] was 133%. The residual activity [34] was 93.5% and 97%, the residual activity [35] was 87.5% and the residual activity [36] was 99.3%. It also gave a residual activity [37] of 100%, a residual activity [38] of 100% and a residual activity [39] of 98.3%. The residual activity [40] was 98.4%, the residual activity [41] was 122% and the residual activity [42] was 103%.

For COc1ccc2c(c1)/C(=C/c1cnc[nH]1)C(O)=N2, the residual activity [1] was 70.7%, the residual activity [2] was 104% and the residual activity [3] was 98.2%. For the same compound, the residual activity [4] was 61.6%, the residual activity [5] was 100% and the residual activity [6] was 87.4%. The residual activity [7] was 30.1%, the residual activity [8] was 94.6% and the residual activity [9] was 95.3%. For the same compound, the residual activity [10] was 86.1%, the residual activity [11] was 73.2% and the residual activity [12] was 4.52%. For the same compound, the residual activity [13] was 89.6%, the residual activity [14] was 106% and the residual activity [15] was -0.369%. The residual activity [16] was 101%, the residual activity [17] was 81.2% and the residual activity [18] was 9.35%. It also gave a residual activity [19] of 98.3%, a residual activity [20] of 84.1% and a residual activity [21] of 49.6%. For the same compound, the residual activity [22] was 91.3%, the residual activity [23] was 107% and the residual activity [24] was 96.9%. It also gave a residual activity [25] of 99%, a residual activity [26] of 90.8% and a residual activity [27] of 50%. It also gave a residual activity [28] of 101%, a residual activity [29] of 92.5% and a residual activity [30] of 101%. The residual activity [31] was 93.6%, the residual activity [32] was 99.2% and the residual activity [33] was 97.3%. The residual activity [34] was 88.3% and 98.3%, the residual activity [35] was 94% and the residual activity [36] was 87.2%. The residual activity [37] was 13.3%, the residual activity [38] was 97.8% and the residual activity [39] was 83.2%. It also gave a residual activity [40] of 99.4%, a residual activity [41] of 95.9% and a residual activity [42] of 93%.

Cc1nc(-c2ccccc2)c(-c2ccncc2)o1 was tested, and the residual activity [1] was 88%, the residual activity [2] was 103% and the residual activity [3] was 94.4%. For the same compound, the residual activity [4] was 98.7%, the residual activity [5] was 101% and the residual activity [6] was 101%. For the same compound, the residual activity [7] was 103%, the residual activity [8] was 91.7% and the residual activity [9] was 92.2%. The residual activity [10] was 97.1%, the residual activity [11] was 90.9% and the residual activity [12] was 97%. For the same compound, the residual activity [13] was 95.5%, the residual activity [14] was 92.2% and the residual activity [15] was 104%. The residual activity [16] was 96.4%, the residual activity [17] was 99.8% and the residual activity [18] was 105%. The residual activity [19] was 93.9%, the residual activity [20] was 93.7% and the residual activity [21] was 90.7%. For the same compound, the residual activity [22] was 98.3%, the residual activity [23] was 103% and the residual activity [24] was 96.1%. For the same compound, the residual activity [25] was 106%, the residual activity [26] was 93.4% and the residual activity [27] was 94.3%. For the same compound, the residual activity [28] was 108%, the residual activity [29] was 102% and the residual activity [30] was 101%. For the same compound, the residual activity [31] was 44%, the residual activity [32] was 100% and the residual activity [33] was 106%. For the same compound, the residual activity [34] was 104% and 97.4%, the residual activity [35] was 97.1% and the residual activity [36] was 103%. It also gave a residual activity [37] of 101%, a residual activity [38] of 96.9% and a residual activity [39] of 97.2%. It also gave a residual activity [40] of 89.4%, a residual activity [41] of 99.5% and a residual activity [42] of 100%.
